Consider 3 compounds from the NIST ThermoML archive (doi:10.1016/j.jct.2006.07.006).

Values joined by “and” are separate entries in the source; they are usually repeats but may differ in a detail not shown here. Equal entries are not always repeated. Numbers after ± are expanded uncertainties.

This series is described as follows: activity coefficient (dimensionless); of the first substance listed, at infinite dilution; xn = mol fraction of the nth substance listed. Conditions: 101 kPa, Liquid, x1 = 0.

`CCCCO` [butan-1-ol] + CCCCCC[n+]1ccn(C)c1.O=S(=O)([N-]S(=O)(=O)C(F)(F)F)C(F)(F)F: the activity coefficient (323.1 K) was 1.99 and 1.98 and 2.06; the activity coefficient (333.5 K) was 1.83 [middle of 4 runs]; the activity coefficient (344 K) was 1.61 [middle of 5 runs]; the activity coefficient (354.5 K) is 1.46 [middle of 5 runs]; the activity coefficient (364.9 K) was 1.34 [middle of 4 runs]; the activity coefficient (375.4 K) was 1.23 and 1.28. In addition, where the note is “386.1 K”, the activity coefficient turned out to be 1.14 ± 0.12.

Turning to `CCCCCCO` [hexan-1-ol] + CCCCCC[n+]1ccn(C)c1.O=S(=O)([N-]S(=O)(=O)C(F)(F)F)C(F)(F)F, the activity coefficient is, setting by setting: (333.4 K) 2.57 ± 0.47; (343.9 K) 2.32 and 2.25 and 2.37; (354.4 K) 2.14 [middle of 7 runs]; (364.8 K) 1.95 [middle of 5 runs]; (375.2 K) 1.8 [middle of 5 runs]; (386 K) 1.67 and 1.69 and 1.7. Also, the activity coefficient (396 K) was 1.56 ± 0.25.

In the case of `CO` [methanol] + CCCCCC[n+]1ccn(C)c1.O=S(=O)([N-]S(=O)(=O)C(F)(F)F)C(F)(F)F, the activity coefficient (301.8 K) is 1.46 [middle of 4 runs]; the activity coefficient (312.4 K) is 1.29 [middle of 5 runs]; the activity coefficient (322.9 K) was 1.15 and 1.25 and 1.22; the activity coefficient (333.2 K) was 1.1 [middle of 4 runs]; the activity coefficient (344 K) is 1 [middle of 4 runs]; the activity coefficient (354.3 K) is 0.87 and 0.93 and 0.9.
